Measured values from PubChem BioAssay (NCI).
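At the GI50, growth is halved. Definition used: TGI = concentration required for complete inhibition of growth.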

What was measured:
Experiment in all cases: NCI tumour cell line growth inhibition, 384-well format
RXF 393 renal = system: RXF 393 renal
786-0 renal = system: 786-0 renal
NCI-H460 NSCLC = system: NCI-H460 NSCLC
HOP-62 NSCLC = system: HOP-62 NSCLC
HCT-116 colon = system: HCT-116 colon
MDA-MB-468 breast = system: MDA-MB-468 breast
U251 glioblastoma = system: U251 glioblastoma
K-562 leukemia = system: K-562 leukemia
MOLT-4 leukemia = system: MOLT-4 leukemia
MDA-MB-435 melanoma = system: MDA-MB-435 melanoma
SK-MEL-5 melanoma = system: SK-MEL-5 melanoma
M14 melanoma = system: M14 melanoma
UACC-257 melanoma = system: UACC-257 melanoma
NCI-H322M lung = system: NCI-H322M lung
HL-60(TB) leukemia = system: HL-60(TB) leukemia
UO-31 renal = system: UO-31 renal
OVCAR-8 ovarian = system: OVCAR-8 ovarian
MDA-MB-231 breast = system: MDA-MB-231 breast
SN12C renal = system: SN12C renal
IGROV1 ovarian = system: IGROV1 ovarian
MCF7 breast = system: MCF7 breast
SF-268 CNS = system: SF-268 CNS
CAKI-1 renal = system: CAKI-1 renal
ACHN renal = system: ACHN renal
SK-MEL-28 melanoma = system: SK-MEL-28 melanoma
SF-295 CNS = system: SF-295 CNS
KM12 colon = system: KM12 colon
NCI-H226 lung = system: NCI-H226 lung
HCT-15 colon = system: HCT-15 colon
SF-539 CNS = system: SF-539 CNS
SW-620 colon = system: SW-620 colon
NCI-H522 lung = system: NCI-H522 lung
EKVX NSCLC = system: EKVX NSCLC
SR leukemia = system: SR leukemia
HOP-92 NSCLC = system: HOP-92 NSCLC
NCI-H23 lung = system: NCI-H23 lung
OVCAR-5 ovarian = system: OVCAR-5 ovarian
SNB-75 CNS = system: SNB-75 CNS
BT-549 breast = system: BT-549 breast
SK-MEL-2 melanoma = system: SK-MEL-2 melanoma
HS 578T breast = system: HS 578T breast
TK-10 renal = system: TK-10 renal
A549 NSCLC = system: A549 NSCLC
OVCAR-3 ovarian = system: OVCAR-3 ovarian
T-47D breast = system: T-47D breast
PC-3 prostate = system: PC-3 prostate
OVCAR-4 ovarian = system: OVCAR-4 ovarian
HT29 colon = system: HT29 colon
A498 renal = system: A498 renal
COLO 205 colon = system: COLO 205 colon
DU-145 prostate = system: DU-145 prostate
SNB-19 CNS = system: SNB-19 CNS
SK-OV-3 ovarian = system: SK-OV-3 ovarian
UACC-62 melanoma = system: UACC-62 melanoma
MALME-3M melanoma = system: MALME-3M melanoma

COc1cc(Nc2ncc(F)c(Nc3ccc4c(n3)N(COP(=O)(O)O)C(=O)C(C)(C)O4)n2)cc(OC)c1OC
GI50 (RXF 393 renal): 241 nM | TGI (RXF 393 renal): 887 nM | GI50 ([…]-0 renal): 1320 nM | TGI (786-0 renal): 2990 nM | GI50 (NCI-H460 NSCLC): 534 nM | TGI (NCI-H460 NSCLC): 11300 nM | GI50 (HOP-62 NSCLC): 1450 nM | TGI (HOP-62 NSCLC): 3710 nM | GI50 (HCT-116 colon): 1930 nM | TGI (HCT-116 colon): 6520 nM | GI50 (MDA-MB-468 breast): 1700 nM | TGI (MDA-MB-468 breast): 3340 nM | GI50 (U251 glioblastoma): 1700 nM | TGI (U251 glioblastoma): 6870 nM | GI50 (K-562 leukemia): 2630 nM | TGI (K-562 leukemia): 10800 nM | GI50 (MOLT-4 leukemia): 1380 nM | TGI (MOLT-4 leukemia): 3030 nM | GI50 (MDA-MB-435 melanoma): 2350 nM | TGI (MDA-MB-435 melanoma): 25400 nM | GI50 (SK-MEL-5 melanoma): 2510 nM | TGI (SK-MEL-5 melanoma): 6660 nM | GI50 (M14 melanoma): 2410 nM | TGI (M14 melanoma): 38800 nM | GI50 (UACC-257 melanoma): 4060 nM | TGI (UACC-257 melanoma): > 100000 nM | GI50 (NCI-H322M lung): 1750 nM | TGI (NCI-H322M lung): 4850 nM | GI50 (HL-60(TB) leukemia): 1570 nM | TGI (HL-60(TB) leukemia): 3030 nM | GI50 (UO-31 renal): 654 nM | TGI (UO-31 renal): 2830 nM | GI50 (OVCAR-8 ovarian): 1610 nM | TGI (OVCAR-8 ovarian): 3010 nM | GI50 (MDA-MB-231 breast): 1980 nM | TGI (MDA-MB-231 breast): 5780 nM | GI50 (SN12C renal): 724 nM | TGI (SN12C renal): 7140 nM | GI50 (IGROV1 ovarian): 427 nM | TGI (IGROV1 ovarian): 1600 nM | GI50 (MCF7 breast): 1910 nM | TGI (MCF7 breast): > 100000 nM | GI50 (SF-268 CNS): 1450 nM | TGI (SF-268 CNS): 2810 nM | GI50 (CAKI-1 renal): 974 nM | TGI (CAKI-1 renal): 2160 nM | GI50 (ACHN renal): 1250 nM | TGI (ACHN renal): 5820 nM | GI50 (SK-MEL-28 melanoma): 2340 nM | TGI (SK-MEL-28 melanoma): > 100000 nM | GI50 (SF-295 CNS): 2500 nM | TGI (SF-295 CNS): 88300 nM | GI50 (KM12 colon): 2900 nM | TGI (KM12 colon): 10900 nM | GI50 (NCI-H226 lung): 640 nM | TGI (NCI-H226 lung): 2490 nM | GI50 (HCT-15 colon): 3060 nM | TGI (HCT-15 colon): > 100000 nM | GI50 (SF-539 CNS): 618 nM | TGI (SF-539 CNS): 1870 nM | GI50 (SW-620 colon): 1880 nM | TGI (SW-620 colon): 6610 nM | GI50 (NCI-H522 lung): 679 nM | TGI (NCI-H522 lung): 2200 nM | GI50 (EKVX NSCLC): 1090 nM | TGI (EKVX NSCLC): 2630 nM | GI50 (SR leukemia): 1510 nM | TGI (SR leukemia): 2950 nM | GI50 (HOP-92 NSCLC): 1260 nM | TGI (HOP-92 NSCLC): 2600 nM | GI50 (NCI-H23 lung): 1380 nM | TGI (NCI-H23 lung): 4400 nM | GI50 (OVCAR-5 ovarian): 1940 nM | TGI (OVCAR-5 ovarian): 42800 nM | GI50 (SNB-75 CNS): 505 nM | TGI (SNB-75 CNS): 1680 nM | GI50 (BT-549 breast): 1300 nM | TGI (BT-549 breast): 2740 nM | GI50 (SK-MEL-2 melanoma): 2930 nM | TGI (SK-MEL-2 melanoma): 16500 nM | GI50 (HS 578T breast): 1260 nM | TGI (HS 578T breast): 2550 nM | GI50 (TK-10 renal): 1380 nM | TGI (TK-10 renal): 3130 nM | GI50 (A549 NSCLC): 1520 nM | TGI (A549 NSCLC): 3120 nM | GI50 (OVCAR-3 ovarian): 1970 nM | TGI (OVCAR-3 ovarian): 11100 nM | GI50 (T-47D breast): 2370 nM | TGI (T-47D breast): 9310 nM | GI50 (PC-3 prostate): 2730 nM | TGI (PC-3 prostate): 12300 nM | GI50 (OVCAR-4 ovarian): 1450 nM | TGI (OVCAR-4 ovarian): 4120 nM | GI50 (HT29 colon): 1410 nM | TGI (HT29 colon): 4490 nM | GI50 (A498 renal): 1740 nM | TGI (A498 renal): 3350 nM | GI50 (COLO 205 colon): 1640 nM | TGI (COLO 205 colon): 3670 nM | GI50 (DU-145 prostate): 1890 nM | TGI (DU-145 prostate): 7540 nM | GI50 (SNB-19 CNS): 1920 nM | TGI (SNB-19 CNS): 4970 nM | GI50 (SK-OV-3 ovarian): 871 nM | TGI (SK-OV-3 ovarian): 2230 nM | GI50 (UACC-62 melanoma): 1220 nM | TGI (UACC-62 melanoma): 3450 nM | GI50 (MALME-3M melanoma): 2300 nM | TGI (MALME-3M melanoma): > 100000 nM
